# System: postjunctional alpha1 receptor (isolated rabbit ear artery segment)
# Assay: postjunctional alpha1 agonist activity (EC50), isolated segment of rabbit ear artery
# Type: cell-based
# Conditions: isolated rabbit ear artery segment superfused with oxygenated Krebs solution; maximum response of the artery determined with norepinephrine; read-out: EC50 (dose required to produce 50% of the maximum response)
# Description: A quantitation of postjunctional alpha1 agonist activity (EC50) is determined for compounds showing activity in the above test. This is accomplished by employing an isolated segment of rabbit ear artery. The segment is mounted in a chamber superfused with oxygenated Krebs solution. The segment is suspended between two tungsten wires, one attached to the chamber, the other to a force-displacement transducer so that smooth muscle tension can be measured directly. Before administration of the test drug, norepinephrine is administered in increasing concentration (10^-8 M to 3×10^-6 M) to determine maximum response of the artery. The dose required to produce 50% of the maximum response is the EC50.
row,Compound,EC50
1,"COc1ccc(OC)c2c1CCC(N)C2 (stereo not shown) [SK&F 87,696]",0.11 µM
2,"COc1ccc(OC)c2c1CCC(N(C)C)C2 (stereo not shown) [SK&F 88,444]",0.1 µM
3,"COc1ccc(SC)c2c1CC(N)CC2 (stereo not shown) [SK&F 89,748, 1,2,3,4-tetrahydro-8-methoxy-5-(methylthio)-2-naphthalenamine]",0.0093 µM
4,"COc1ccc(SC)c2c1CC(N(C)C)CC2 (stereo not shown) [SK&F 89,900, 1,2,3,4-tetrahydro-8-methoxy-N,N-dimethyl-5-(methylthio)-2-naphthalenamine]",0.013 µM

# From US4320148A, “2-Aminotetralin compounds, pharmaceutical compositions and method of producing central alpha1 agonist activity” (SmithKline Corporation, priority 1980, dated 1982)
